“And” between values parts separate entries of the source, which are not always exact repeats. Identical values can stand only once.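 1) Cells in 96-well plates. 2) Compound, 48 h, 5 concentrations. 3) Linear interpolation between surrounding doses. 4) Unreached endpoint = highest concentration. Here, GI50 denotes the concentration required for 50% inhibition of growth. TGI marks complete inhibition of growth.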

The subject of the first assay is UACC-62 melanoma. The experiment in a line: NCI anticancer screen, dose series, 48 h.
As for `C#Cc1cnc(=O)n(C2CC(O)C(CO)O2)c1` (centres undefined), the GI50 was > 100 µM and the TGI was > 100 µM.
Turning to `COc1c(C2CC(=O)Nc3c2cnn3Cc2ccco2)cc2c(c1OC)OCO2` (centres undefined), the TGI is > 100 µM.
Still for that read-out and setting: then `CC(CO)(CO)N=Cc1cc(I)cc(I)c1O`, with 30.7 µM.
For the compound `CC1(C)N=C(N)N=C(N)N1c1ccc(CCCCc2ccc(S(=O)(=O)F)cc2)cc1`, the GI50 is 0.368 µM and the TGI turned out to be 16.8 µM.
For `NC(N)=N/N=C(/c1ccccc1)c1ccc(F)cc1`, in that order: 0.421 µM and 15.5 µM.
For `COc1cc(C(=O)NC2c3ccccc3-c3ccccc32)c(N)cc1OCc1ccccc1`, in that order: 20.1 µM and 67.5 µM.
Taken in the same sequence, the figures for `Oc1ccccc1/C=N/Nc1ccc2ccccc2n1` were 3.17 µM and > 100 µM.
In the case of `COc1ccc(C(=S)N2CCN(c3cccc(Cl)c3)CC2)cc1`, the GI50 is 78.2 µM and the TGI is > 100 µM.
As to `COc1ccc(/C=C/C=C(/C#N)C(N)=S)cc1`, the GI50 is 19.3 µM and the TGI stood at 37.9 µM.
In the case of `Clc1ccccc1C(c1ccccc1)(c1ccccc1)n1ccnc1`, the GI50 was 1.44 µM; the TGI was 6.68 µM and 27.9 µM.
Turning to `COc1ccc(-c2cc(-c3cc(Cl)ccc3Cl)nc3[nH]c(-c4cc(F)c(Cl)cc4Cl)cc(=O)c23)cc1`, the GI50 was 14.3 µM and the TGI was determined as 93.4 µM.

In a further assay the test system is RXF 393 renal. The assay can be described thus: NCI anticancer screen, dose series, 48 h.
For `C#Cc1cnc(=O)n(C2CC(O)C(CO)O2)c1` (centres undefined), the GI50 is > 100 µM and the TGI is > 100 µM.
For `COc1c(C2CC(=O)Nc3c2cnn3Cc2ccco2)cc2c(c1OC)OCO2` (centres undefined), the GI50 is 0.35 µM and the TGI is > 19.7 µM.
Turning to `CC(CO)(CO)N=Cc1cc(I)cc(I)c1O`, the TGI was 26.5 µM.
Take `CC1(C)N=C(N)N=C(N)N1c1ccc(CCCCc2ccc(S(=O)(=O)F)cc2)cc1`: the GI50 was 0.79 µM and the TGI is > 100 µM.
Taken in the same sequence, the figures for `NC(N)=N/N=C(/c1ccccc1)c1ccc(F)cc1` were 0.291 µM and 3.54 µM.
Regarding `COc1cc(C(=O)NC2c3ccccc3-c3ccccc32)c(N)cc1OCc1ccccc1`, the GI50 is 13.5 µM and the TGI came to 34.7 µM.
In the case of `Oc1ccccc1/C=N/Nc1ccc2ccccc2n1`, the GI50 was 18.3 µM and the TGI is > 100 µM.
For `COc1ccc(C(=S)N2CCN(c3cccc(Cl)c3)CC2)cc1`, in that order: > 100 µM and > 100 µM.
For `COc1ccc(/C=C/C=C(/C#N)C(N)=S)cc1`, in that order: 14 µM and 30.1 µM.
Consider `Clc1ccccc1C(c1ccccc1)(c1ccccc1)n1ccnc1`, for which the GI50 was 2.89 µM; the TGI was 9.28 µM and 42.1 µM.
For the compound `COc1ccc(-c2cc(-c3cc(Cl)ccc3Cl)nc3[nH]c(-c4cc(F)c(Cl)cc4Cl)cc(=O)c23)cc1`, the GI50 was 17.4 µM and the TGI was > 100 µM.

A further assay relates to SK-MEL-2 melanoma. The assay can be described thus: NCI anticancer screen, dose series, 48 h.
Consider `C#Cc1cnc(=O)n(C2CC(O)C(CO)O2)c1` (centres undefined), for which the GI50 was > 100 µM and the TGI was > 100 µM.
Consider `COc1c(C2CC(=O)Nc3c2cnn3Cc2ccco2)cc2c(c1OC)OCO2` (centres undefined), for which the GI50 was 0.421 µM and the TGI is > 100 µM.
As for `CC(CO)(CO)N=Cc1cc(I)cc(I)c1O`, the TGI stood at 27.4 µM.
Consider `CC1(C)N=C(N)N=C(N)N1c1ccc(CCCCc2ccc(S(=O)(=O)F)cc2)cc1`, for which the GI50 was 4.91 µM and the TGI is 21.8 µM.
Taken in the same sequence, the figures for `NC(N)=N/N=C(/c1ccccc1)c1ccc(F)cc1` were 0.429 µM and 11.3 µM.
For `COc1cc(C(=O)NC2c3ccccc3-c3ccccc32)c(N)cc1OCc1ccccc1`, in that order: 33.7 µM and 98.9 µM.
Taken in the same sequence, the figures for `Oc1ccccc1/C=N/Nc1ccc2ccccc2n1` were 30 µM and > 100 µM.
As for `COc1ccc(C(=S)N2CCN(c3cccc(Cl)c3)CC2)cc1`, the GI50 was > 100 µM and the TGI is > 100 µM.
In the case of `COc1ccc(/C=C/C=C(/C#N)C(N)=S)cc1`, the GI50 is 25.2 µM and the TGI is 67.7 µM.
Take `Clc1ccccc1C(c1ccccc1)(c1ccccc1)n1ccnc1`: the GI50 was 2.66 µM; the TGI is 7.22 µM and 29.3 µM.
For `COc1ccc(-c2cc(-c3cc(Cl)ccc3Cl)nc3[nH]c(-c4cc(F)c(Cl)cc4Cl)cc(=O)c23)cc1`, the GI50 is 64.8 µM and the TGI was > 100 µM.

Another assay concerns OVCAR-5 ovarian. The assay can be described thus: NCI anticancer screen, dose series, 48 h.
Consider `C#Cc1cnc(=O)n(C2CC(O)C(CO)O2)c1` (centres undefined), for which the GI50 was > 100 µM and the TGI is > 100 µM.
`COc1c(C2CC(=O)Nc3c2cnn3Cc2ccco2)cc2c(c1OC)OCO2` (centres undefined): the GI50 is 4.7 µM and the TGI is > 100 µM.
`CC(CO)(CO)N=Cc1cc(I)cc(I)c1O` registered a TGI of 53.7 µM.
For `CC1(C)N=C(N)N=C(N)N1c1ccc(CCCCc2ccc(S(=O)(=O)F)cc2)cc1`, the GI50 was 2.62 µM and the TGI was > 100 µM.
Taken in the same sequence, the figures for `NC(N)=N/N=C(/c1ccccc1)c1ccc(F)cc1` were 1.03 µM and 18.7 µM.
For `COc1cc(C(=O)NC2c3ccccc3-c3ccccc32)c(N)cc1OCc1ccccc1`, in that order: 52.5 µM and > 100 µM.
Taken in the same sequence, the figures for `Oc1ccccc1/C=N/Nc1ccc2ccccc2n1` were 8.31 µM and > 100 µM.
As for `COc1ccc(C(=S)N2CCN(c3cccc(Cl)c3)CC2)cc1`, the GI50 was > 100 µM and the TGI is > 100 µM.
On to `COc1ccc(/C=C/C=C(/C#N)C(N)=S)cc1`, for which the GI50 was 34.3 µM and the TGI was 95.8 µM.
In the case of `Clc1ccccc1C(c1ccccc1)(c1ccccc1)n1ccnc1`, the GI50 is 4.05 µM; the TGI was 15.5 µM and 29.8 µM.
On to `COc1ccc(-c2cc(-c3cc(Cl)ccc3Cl)nc3[nH]c(-c4cc(F)c(Cl)cc4Cl)cc(=O)c23)cc1`, for which the GI50 is 22.2 µM and the TGI was 89.2 µM.

The subject of the next assay is HS 578T breast. The assay can be described thus: NCI anticancer screen, dose series, 48 h.
With `C#Cc1cnc(=O)n(C2CC(O)C(CO)O2)c1` (centres undefined), the GI50 is > 100 µM and the TGI was > 100 µM.
Take `COc1c(C2CC(=O)Nc3c2cnn3Cc2ccco2)cc2c(c1OC)OCO2` (centres undefined): the GI50 was 0.49 µM and the TGI is > 100 µM.
In the case of `CC(CO)(CO)N=Cc1cc(I)cc(I)c1O`, the TGI turned out to be 74 µM.
Regarding `CC1(C)N=C(N)N=C(N)N1c1ccc(CCCCc2ccc(S(=O)(=O)F)cc2)cc1`, the GI50 was 13.2 µM and the TGI was 46 µM.
Taken in the same sequence, the figures for `NC(N)=N/N=C(/c1ccccc1)c1ccc(F)cc1` were 0.452 µM and 27.7 µM.
For `COc1cc(C(=O)NC2c3ccccc3-c3ccccc32)c(N)cc1OCc1ccccc1`, in that order: 14.5 µM and 79.1 µM.
For `Oc1ccccc1/C=N/Nc1ccc2ccccc2n1`, in that order: 6.87 µM and 76.3 µM.
For `COc1ccc(C(=S)N2CCN(c3cccc(Cl)c3)CC2)cc1`, the GI50 was > 100 µM and the TGI was > 100 µM.
Turning to `COc1ccc(/C=C/C=C(/C#N)C(N)=S)cc1`, the GI50 is 62.5 µM and the TGI is > 100 µM.
As to `Clc1ccccc1C(c1ccccc1)(c1ccccc1)n1ccnc1`, the GI50 is 3.45 µM; the TGI is 19.7 µM and 35.2 µM.
For the compound `COc1ccc(-c2cc(-c3cc(Cl)ccc3Cl)nc3[nH]c(-c4cc(F)c(Cl)cc4Cl)cc(=O)c23)cc1`, the GI50 is 8.19 µM and the TGI turned out to be 50.4 µM.

The record behind these values is PubChem BioAssay (NCI).
